Experimental data as given in US9879303B2, “Chromogenic glucuronidase substrates and uses” (Glycosynth Limited, priority 2013, dated 2018).
Where a name gives a salt, the structure may show the parent alone.

Key:
Format in all cases: cell-based
[1] = test system: E. faecium NCTC 7171; test: screen of strains in broth medium containing FAC; design: key: Red, Green, Black or Purple mean strong colour; Red, Green, Black or Purple mean strong colour; Red, Green, Black or Purple mean strong colour; Red, Green, Black or Purple mean strong colour; +/− means less colour than strong; Tr means a trace of colour, less than +/−; — means no colour; conditions: 37° C. 18 hours
[2] = test system: 20 different microbial strains; test: specificity of action on 20 different microbial strains, Columbia agar; conditions: 19 organisms other than E. coli NCTC 10418, FAC
Experimental: (§1) The specificity of action of both DHN-β-D-glucuronide (2) and of catechol-β-D-glucuronide (1), as well as their 6′-methyl esters (4 and 6), was first established using multi-point inoculation of 20 different microbial strains onto Columbia agar plates. The strains chosen represented species commonly encountered in diagnostic microbiology. The substrates were incorporated into the agar at a concentration of 300 mg/L with an iron salt, ferric ammonium citrate, (hereinafter known as FAC) at 500 mg/L. The plates were incubated for 18 h at 37° C. in air.
Of the 20 strains, only the β-D-glucuronidase-positive strain of E. coli, (E. coli NCTC 10418) was able to hydrolyse the substrates. This organism generated diffuse, purple-brown colonies with the catechol substrates and diffuse, maroon colonies with the DHN substrates. Essentially identical results were obtained if other iron salts (e.g. iron(II) gluconate, iron(II) acetate, iron(II) citrate, iron(II) acetylacetonate and iron(III) acetylacetonate) were substituted in place of FAC. The iron compound can be either iron(II) (i.e. ferrous) or iron(III) (i.e. ferric). Both types of compound work equally, and the coloured chelates were still formed when the plates were incubated under anaerobic conditions, which is another useful feature of the present invention. The substrates may also be autoclaved at 116° C. for 20 minutes with no decrease in sensitivity. It will be appreciated that the media and the reagents will all contain at least traces of iron compounds. […] In contrast, supplementing the growth media with compounds of other metals gave either no coloured endpoint or an extremely poor one to visualise. […] Therefore the latter substrates were preferred for more extensive evaluation. […] For convenience, further evaluation of catechol-β-D-glucuronide and DHN-β-D-glucuronide was conducted with the CHA salt forms only (1 and 2b). In the present invention the counter ion of the glucuronide is not considered to be of special significance. For acidic enzyme substrates (including glucuronides), a variety of different counter ions, both inorganic and organic, are well known in the prior art.

[3] = test system: Klebsiella pneumoniae NCTC 9528; test: multi-point inoculation onto Columbia agar plates; conditions: substrate 300 mg/L, FAC 500 mg/L, 18 h at 37° C. in air
Experimental: as §1

[4] = test system: Bacillus subtilis NCTC 9372; test: multi-point inoculation onto Columbia agar plates; conditions: substrate 300 mg/L, FAC 500 mg/L, 18 h at 37° C. in air
Experimental: as §1

[5] = test system: E. coli expressing both β-D-glucuronidase and β-D-galactosidase; test: broth media in the presence of ONPG; conditions: ONPG 1.5 g/L, broth with FAC
Experimental: The two indoxyl glucuronides used produce insoluble endpoints following hydrolysis, as does the CPS ID 3 medium. It was therefore necessary to test these two substrates on agar plates. In contrast, catechol-β-D-glucuronide (1) and DHN-β-D-glucuronide (2b) give much more soluble endpoints best suited to liquid media and were therefore tested in a broth medium. Each broth was prepared using proteose peptone (Oxoid, Basingstoke, UK) (2 g), NaCl (1 g) and FAC (100 mg) in DI water (180 mL). This mixture was autoclaved and cooled to room temperature before being dispensed into bijoux (100×1.8 mL). Catechol β-D-glucuronide CHA salt (1) or DHN-β-D-glucuronide CHA salt (2b) (60 mg) were each dissolved in water (20 mL) and filtered to sterilize before being aseptically dispensed into successive bijoux (0.2 mL) containing the broth solution. […]
Because many E. coli produce both β-D-glucuronidase and β-D-galactosidase, catechol-β-D-glucuronide (1) and DHN-β-D-glucuronide (2b) were tested as in the broth media described above but in the presence of o-nitrophenyl-β-D-galactoside (ONPG) (at a concentration of 1.5 g/L). […] With either substrate, the colour of these solutions of mixed chromogens could be very readily distinguished with the unaided eye from the yellow colour of those strains, such as E. cloacae, that produced β-D-galactosidase only. […]

[6] = test system: E. faecalis NCTC 775; test: screen of strains in broth medium containing FAC; design: key: Red, Green, Black or Purple mean strong colour; Red, Green, Black or Purple mean strong colour; Red, Green, Black or Purple mean strong colour; Red, Green, Black or Purple mean strong colour; +/− means less colour than strong; Tr means a trace of colour, less than +/−; — means no colour; conditions: 37° C. 18 hours
[7] = test system: E. faecium NCTC 7171; test: screen of strains on agar plates (CPS ID 3 or Columbia agar); design: key: Red, Green, Black or Purple mean strong colour; Red, Green, Black or Purple mean strong colour; Red, Green, Black or Purple mean strong colour; Red, Green, Black or Purple mean strong colour; +/− means less colour than strong; Tr means a trace of colour, less than +/−; — means no colour; conditions: 37° C. 18 hours
[8] = test system: E. cloacae; test: as above; design: key: Red, Green, Black or Purple mean strong colour; Red, Green, Black or Purple mean strong colour; Red, Green, Black or Purple mean strong colour; Red, Green, Black or Purple mean strong colour; +/− means less colour than strong; Tr means a trace of colour, less than +/−; — means no colour
[9] = test system: E. faecalis NCTC 775; test: as above; design: key: Red, Green, Black or Purple mean strong colour; Red, Green, Black or Purple mean strong colour; Red, Green, Black or Purple mean strong colour; Red, Green, Black or Purple mean strong colour; +/− means less colour than strong; Tr means a trace of colour, less than +/−; — means no colour; conditions: 37° C. 18 hours
[10] = E. cloacae 260329R, 37° C. 18 hours
[11] = E. cloacae NCTC 11936, 37° C. 18 hours

SMILES	colour [1]	result with the other 19 organisms [2]	colour [3]	colour [4]	colour of solutions in the presence of ONPG [5]	colour [6]	colour [7]	colour [8, 10]	colour [8, 11]	colour [9]
O=C(O)C1OC(Oc2ccccc2O)C(O)C(O)C1O [Compound 1, Catechol β-D-Glucuronide CHA Salt]	—	uniformly negative	−	−	greyish-black solutions	—				
O=C(O)C1OC(Oc2cc3ccccc3cc2O)C(O)C(O)C1O [Compound 2b, DHN-β-D-Glucuronide CHA Salt]	—	uniformly negative	−	−	purple-brown solutions	—				
O=C(O)[C@H]1O[C@@H](Oc2c[nH]c3cc(Cl)ccc23)[C@H](O)[C@@H](O)[C@@H]1O [Rose-β-D-glucuronide CHA salt, 6-chloro-3-indolyl β-D-glucuronide]							—	—	—	—
O=C(O)[C@H]1O[C@@H](Oc2c[nH]c3ccc(Br)c(Cl)c23)[C@H](O)[C@@H](O)[C@@H]1O [X-β-D-glucuronide CHA salt, 5-bromo-4-chloro-3-indolyl β-D-glucuronide]							—	—	—	—
